# Test results as given in US12678423B2, “Therapeutic agent for amyotrophic lateral sclerosis and composition for treatment” (KEIO UNIVERSITY, priority 2016, dated 2026).
# Columns and labels:
# Assay type in all cases: cell-based, human
# [1] = test system: motor neurons induced to differentiate from iPS cells derived from ALS patients (TDP-43-ALS) having a mutation in TDP-43; assay: Neurite length in late stage ALS disease, TDP-43-ALS (Example I-9); conditions: final concentration 1 μM, added days 50 to 62 from start of differentiation induction, FIG. 14
# Procedure: (§1) The efficacy of ropinirole was evaluated in the same manner as in Example I-8, except that the timing of adding ropinirole was changed to days 50 to 62 from the start of the differentiation induction of each iPS cell. It is assumed that days 50 to 62 after the start of induction of differentiation correspond to the late stage of the ALS disease.
# (§2) Specifically, ropinirole was added to a medium of motor neurons induced to differentiate from iPS cells derived from ALS patients (FUS-ALS) having a mutation in FUS and motor neurons induced to differentiate from iPS cells derived from ALS patients (TDP-43-ALS) having a mutation in TDP-43 and the changes over time in the neurite length were measured. The measurement of neurite length was carried out in the same manner as in Example I-2. Ropinirole was added to the medium at a final concentration of 1 μM.
# (§3) FIG. 14(a) is a graph showing the results of measurement of the changes over time in the neurite length of each motor neuron. In FIG. 14(a), the vertical axis represents the neurite length (relative value), the horizontal axis represents the number of days of culturing from the start of differentiation induction, and “+ROPI” represents the result of adding ropinirole to the medium. In addition, FIG. 14(b) is a graph enlarging the boxed portion of the graph of FIG. 14(a). […]
# [2] = test system: motor neurons differentiated from iPS cells derived from 24 patients having sporadic ALS (SALS); assay: CV caspase 3-positive ratio, 24 sporadic ALS patient models (Example III-5); conditions: final concentration 1 μM for 5 days
# Procedure: In the same manner as in Example II-1, iPS cells derived from 24 patients having sporadic ALS (SALS) were differentiated into motor neurons and then ropinirole with a final concentration of 1 μM was added to the medium. In addition, for comparison, a group for which ropinirole was not added to the medium was prepared. In addition, as a control, a group for which iPS cells derived from healthy subjects were differentiated into motor neurons in the same manner as in Example I-1 was used. No ropinirole was added to the medium of these motor neurons. As the iPS cells derived from a healthy subject, the same cells as used in Example I-1 were used.
# Below, each differentiated motor neuron is identified by the patient number from whom the neuron was derived.
# In all of the motor neurons, the addition period of ropinirole was 5 days. The time to start the addition of ropinirole varied depending on the case and was from day 30 to day 70 from the start of the differentiation induction of each of the iPS cells.
# Subsequently, for each motor neuron on day 5 after the addition of ropinirole, the ratio of CV caspase 3-positive neurons was measured in the same manner as in Example I-3.
# FIG. 15 is a graph showing the measurement results of the ratio of CV caspase 3-positive neurons. […]
# [3] = test system: motor neurons induced to differentiate from iPS cells derived from ALS patients (FUS-ALS) having a mutation in FUS; assay: Neurite length in late stage ALS disease, FUS-ALS (Example I-9); conditions: final concentration 1 μM, added days 50 to 62 from start of differentiation induction, FIG. 14
# Procedure: as §1, §2, §3
# [4] = test system: motor neurons induced to differentiate from iPS cells derived from ALS patients (FUS-ALS) having a mutation in FUS; assay: Neurite length, FUS-ALS motor neurons (screening, Example I-8)
# Procedure: (§4) For each differentiation-induced motor neuron in Example I-1, the changes over time in the neurite length were measured. A Bio station CT (Nikon Corp.) was used to measure the neurite length over time. FIG. 1 is a graph showing measurement results of changes over time in the neurite length. The vertical axis represents neurite length (relative value), and the horizontal axis represents the number of days of culturing from the start of differentiation induction.
# (§5) Using the differentiation-induced motor neurons in Example I-1, drugs which cause the ALS phenotype to be restored were screened from existing drug libraries with the neurite length, ectopic localization of FUS protein, stress granule formation, LDH leakage ratio, CV-caspase 3-positive ratio, phosphorylated TDP-43 protein inclusion formation, and the like as indices.
# (§6) As a result of the screening, ropinirole was found as a promising therapeutic agent for ALS. Tables 5 and 6 show the improvement ratio (%) in the ALS phenotype due to adding ropinirole to the medium. Here, ropinirole was added to the medium on days 35 to 40 from the start of the differentiation induction of each iPS cell. Here, it is assumed that days 35 to 40 from the start of differentiation induction correspond to the early stage of the ALS disease.
# (§7) The improvement ratio (%) of the ALS phenotype was calculated by Equation (1).
# (§8) [formula] [In Equation (1), A represents a measurement value of motor neurons induced to differentiate from iPS cells derived from ALS patients in the absence of ropinirole, and B represents a measurement value of motor neurons induced to differentiate from iPS cells derived from ALS patients in the presence of ropinirole, and C represents a measurement value of motor neurons induced to differentiate from iPS cells derived from healthy subjects in the absence of ropinirole.]
# (§9) Subsequently, in the same manner as above, the efficacy in cases of administering lower concentrations of ropinirole was evaluated.
# (§10) Each drug was added to the medium at a final concentration of 10 μM.
# [5] = test system: motor neurons induced to differentiate from iPS cells derived from ALS patients (TDP-43-ALS) having a mutation in TDP-43; assay: Neurite length, TDP-43-ALS motor neurons (screening, Example I-8)
# Procedure: as §4, §5, §6, §7, §8, §9, §10
# [6] = test system: motor neurons induced to differentiate from iPS cells derived from ALS patients (TDP-43-ALS) having a mutation in TDP-43; assay: LDH leakage ratio, TDP-43-ALS motor neurons
# Procedure: The leakage amount of LDH into the medium is an indicator of cytotoxicity. For measurement of the LDH leakage ratio, a commercially available kit (model “LDH Cytotoxicity Detection Kit”, Takara Bio Inc.) was used.
# Here, ropinirole was added to the medium on days 35 to 40 from the start of the differentiation induction of each iPS cell. Here, it is assumed that days 35 to 40 from the start of differentiation induction correspond to the early stage of the ALS disease.
# as §7, §8, §9, §10
# [7] = final concentration 1 μM, added days 35 to 40
# [8] = final concentration 10 μM, added days 35 to 40
# [9] = final concentration 0.1 μM, added days 35 to 40
smiles,measurement,setting,value
"CCCN(CCC)CCc1cccc2c1CC(=O)N2 [Ropinirole, 4-(2-di-n-propylaminoethyl)-2(3H)-indole]","Neurite length (changes over time), late stage",[1],neuroprotective action (maintenance of neurite length)
same,Share of SALS cases in which the increase in CV caspase 3-positive ratio was suppressed,[2]; 16 of 22 cases,72.73 % of SALS cases
same,Cases in which the increase in CV caspase 3-positive ratio was suppressed,"[2]; among 22 SALS cases with confirmed increase (of 24), FIG. 15",16 cases
same,"Neurite length (changes over time), late stage",[3],neuroprotective action (maintenance of neurite length)
same,Neurite length improvement ratio,[4]; final concentration 0.1 nM,3.22%
same,Neurite length improvement ratio,[4]; final concentration 1 nM,32.3%
same,Neurite length improvement ratio,[4]; final concentration 10 nM,45.8%
same,Neurite length improvement ratio,"[4]; final concentration 0.1 μM, added days 35 to 40 from start of differentiation induction",43.3%
same,Neurite length improvement ratio,[4]; [7],58.3%
same,Neurite length improvement ratio,[4]; [8],61.3%
same,Neurite length improvement ratio,[5]; final concentration 0.1 nM,12.1%
same,Neurite length improvement ratio,[5]; final concentration 1 nM,49.4%
same,Neurite length improvement ratio,[5]; final concentration 10 nM,52.3%
same,Neurite length improvement ratio,[5]; [9],50.4%
same,Neurite length improvement ratio,[5]; [7],75.3%
same,Neurite length improvement ratio,[5]; [8],77.2%
same,LDH leakage ratio improvement ratio,[6]; final concentration 0.1 nM,10.2%
same,LDH leakage ratio improvement ratio,[6]; final concentration 1 nM,55.2%
same,LDH leakage ratio improvement ratio,[6]; final concentration 10 nM,56.6%
same,LDH leakage ratio improvement ratio,[6]; [9],58.3%
same,LDH leakage ratio improvement ratio,[6]; [7],78.1%
same,LDH leakage ratio improvement ratio,[6]; [8],82.4%
